According to patent US12552792B2, “Solid forms of an FGFR inhibitor and processes for preparing the same” (Incyte Corporation, priority 2018, dated 2026):
Several values for one entry are separate records, joined by “and”; a condition that tells them apart may be missing. Identical values can stand only once.

System: patients with advanced/metastatic or surgically unresectable cholangiocarcinoma
Assay: Phase 2 clinical study in advanced/metastatic or surgically unresectable cholangiocarcinoma
Settings: for median PFS; Median time to events (95% Cl), months: Kaplan-Meier
[1] = Cohort A (FGFR2 translocations), preliminary
[2] = Cohort A (n = 47), independent reviewer
[3] = Cohort B (n = 22), independent reviewer
[4] = Cohort C (n = 18), independent reviewer
[5] = all patients, 13.5 mg QD 2-weeks-on/1-week-off

From the text: The study also considers exposure-response analyses for key efficacy and safety parameters.
The study enrolls approximately 100 subjects into Cohort A (FGFR2 translocations), 20 subjects into Cohort B (other FGF/FGFR alterations), and 20 subjects into Cohort C (US only, negative for FGF/FGFR alterations). […] Treatment will start on Day 1. Subjects undergo regular safety assessments during treatment as well as regular efficacy assessments. Subjects are allowed to continue administration in 21-day cycles until documented disease progression or unacceptable toxicity is reported.
One cycle is defined as 21 days.
The study subjects are those with advanced/metastatic or surgically unresectable cholangiocarcinoma with FGFR2 translocations, with other FGF/FGFR alterations, or who are negative for any FGF/FGFR alterations, who failed at least 1 previous treatment.
The key inclusion criteria include men and women, aged 18 or older. The subjects have histologically or cytologically confirmed advanced/metastatic or surgically unresectable cholangiocarcinoma. Subjects in Cohort A have FGFR2 translocations with a documented fusion partner in central laboratory report. Subjects in Cohort B have other FGF/FGFR alterations. Subjects in Cohort C (US only) are negative for FGF/FGFR alterations. Additional key inclusion criteria include radiographically measureable disease per RECIST v. 1.1; documentation of FGF/FGFR gene alteration status; documented disease progression after at least 1 line of prior systemic therapy; ECOG performance status of 0 to 2; a life expectancy greater than or equal to 12 weeks; adequate hepatic function; adequate renal function; serum phosphate≤institutional ULN; and serum calcium within institutional normal range.
The study schedule and procedures include regularly scheduled study visits at the clinical site as part of a 21-day cycle. Study visits begin with a prescreening to obtain FGF/FGFR status if unknown (results within approximately 2 years of screening are valid). Screening takes place on day −28 through day −1. Cycle 1 occurs on days 1, 8, and 15. Cycles 2+ begin on day 1. A safety follow up occurs 30 days (+5 days) from date of last dose. Disease status follow-up occurs every 9 weeks for subjects who discontinue for reasons other than disease progression. There is a survival follow-up every 12 weeks after discontinuation. […] Study visits include sample collection for hematology, chemistry, coagulation, endocrine monitoring, lipids, and urinalysis testing. Additionally, HIV screening (required for subjects outside the US) and hepatitis screening (serology) is done at screening. Pregnancy testing is also be done at screening, Day 1 of every cycle before dose administration, and at end-of-treatment. FGF/FGFR status may be determined locally.
Tumor tissue is evaluated through the central laboratory for confirmation of FGF/FGFR alteration status. Blood samples for population pharmacokinetic analysis and whole blood pharmacodynamics and correlative studies are collected at various time points throughout the study and analyzed at the central laboratory or designee.
Adverse event assessments, vital signs, electrocardiograms, physical examination, ECOG performance status comprehensive eye examination, and tumor and disease response assessments are performed by the investigative site. An objective assessment of disease status is performed at screening. Subsequently, disease status including RECIST radiological response assessment is assessed every 2 cycles for the first 4 cycles and every 3 cycles thereafter. A central radiology group provides centralized reading on all assessments.
The primary endpoint of the study is to determine the objective response rate (ORR) in subjects with FGFR2 translocations based on the central genomics laboratory results.

CCN1C(=O)N(c2c(F)c(OC)cc(OC)c2F)Cc2cnc3[nH]c(CN4CCOCC4)cc3c21 [Compound 1, 3-(2,6-difluoro-3,5-dimethoxyphenyl)-1-ethyl-8-(morpholin-4-ylmethyl)-1,3,4,7-tetrahydro-2H-pyrrolo[3′,2′:5,6]pyrido[4,3-d]pyrimidin-2-one]
Alopecia, TEAEs, All Grades, % of patients (All Cohorts (N = 89)): 41.6% | Alopecia, TEAEs, Grade 3/4, % of patients (All Cohorts (N = 89)): 0.0% | Alopecia, TRAEs, All Grades, % of patients (All Cohorts (N = 89)): 37.1% | Alopecia, TRAEs, Grade 3/4, % of patients (All Cohorts (N = 89)): 0.0% | Arthralgia, TEAEs, All Grades, % of patients (All Cohorts (N = 89)): 23.6% | Arthralgia, TEAEs, Grade 3/4, % of patients (All Cohorts (N = 89)): 6.7% | Arthralgia, TRAEs, All Grades, % of patients (All Cohorts (N = 89)): 11.2% | Arthralgia, TRAEs, Grade 3/4, % of patients (All Cohorts (N = 89)): 4.5% | Constipation, TEAEs, All Grades, % of patients (All Cohorts (N = 89)): 30.3% | Constipation, TEAEs, Grade 3/4, % of patients (All Cohorts (N = 89)): 0.0% | Constipation, TRAEs, All Grades, % of patients (All Cohorts (N = 89)): 11.2% | Constipation, TRAEs, Grade 3/4, % of patients (All Cohorts (N = 89)): 0.0% | Decreased appetite, TEAEs, All Grades, % of patients (All Cohorts (N = 89)): 37.1% | Decreased appetite, TEAEs, Grade 3/4, % of patients (All Cohorts (N = 89)): 2.2% | Decreased appetite, TRAEs, All Grades, % of patients (All Cohorts (N = 89)): 24.7% | Decreased appetite, TRAEs, Grade 3/4, % of patients (All Cohorts (N = 89)): 1.1% | Diarrhea, TEAEs, All Grades, % of patients (All Cohorts (N = 89)): 39.3% | Diarrhea, TEAEs, Grade 3/4, % of patients (All Cohorts (N = 89)): 2.2% | Diarrhea, TRAEs, All Grades, % of patients (All Cohorts (N = 89)): 29.2% | Diarrhea, TRAEs, Grade 3/4, % of patients (All Cohorts (N = 89)): 2.2% | Dry eye, TEAEs, All Grades, % of patients (All Cohorts (N = 89)): 20.2% | Dry eye, TEAEs, Grade 3/4, % of patients (All Cohorts (N = 89)): 1.1% | Dry eye, TRAEs, All Grades, % of patients (All Cohorts (N = 89)): 13.5% | Dry eye, TRAEs, Grade 3/4, % of patients (All Cohorts (N = 89)): 1.1% | Dry mouth, TEAEs, All Grades, % of patients (All Cohorts (N = 89)): 29.2% | Dry mouth, TEAEs, Grade 3/4, % of patients (All Cohorts (N = 89)): 0.0% | Dry mouth, TRAEs, All Grades, % of patients (All Cohorts (N = 89)): 23.6% | Dry mouth, TRAEs, Grade 3/4, % of patients (All Cohorts (N = 89)): 0.0% | Dysgeusia, TEAEs, All Grades, % of patients (All Cohorts (N = 89)): 36.0% | Dysgeusia, TEAEs, Grade 3/4, % of patients (All Cohorts (N = 89)): 0.0% | Dysgeusia, TRAEs, All Grades, % of patients (All Cohorts (N = 89)): 34.8% | Dysgeusia, TRAEs, Grade 3/4, % of patients (All Cohorts (N = 89)): 0.0% | Edema peripheral, TEAEs, All Grades, % of patients (All Cohorts (N = 89)): 22.5% | Edema peripheral, TEAEs, Grade 3/4, % of patients (All Cohorts (N = 89)): 1.1% | Edema peripheral, TRAEs, All Grades, % of patients (All Cohorts (N = 89)): 3.4% | Edema peripheral, TRAEs, Grade 3/4, % of patients (All Cohorts (N = 89)): 0.0% | Fatigue, TEAEs, All Grades, % of patients (All Cohorts (N = 89)): 36.0% | Fatigue, TEAEs, Grade 3/4, % of patients (All Cohorts (N = 89)): 4.5% | Fatigue, TRAEs, All Grades, % of patients (All Cohorts (N = 89)): 23.6% | Fatigue, TRAEs, Grade 3/4, % of patients (All Cohorts (N = 89)): 1.1% | Hyperphosphatemia, TEAEs, All Grades, % of patients (All Cohorts (N = 89)): 60.7% | Hyperphosphatemia, TEAEs, Grade 3/4, % of patients (All Cohorts (N = 89)): 0.0% | Hyperphosphatemia, TRAEs, All Grades, % of patients (All Cohorts (N = 89)): 55.1% | Hyperphosphatemia, TRAEs, Grade 3/4, % of patients (All Cohorts (N = 89)): 0.0% | Hypophosphatemia, TEAEs, All Grades, % of patients (All Cohorts (N = 89)): 25.8% | Hypophosphatemia, TEAEs, Grade 3/4, % of patients (All Cohorts (N = 89)): 13.5% | Hypophosphatemia, TRAEs, All Grades, % of patients (All Cohorts (N = 89)): 10.1% | Hypophosphatemia, TRAEs, Grade 3/4, % of patients (All Cohorts (N = 89)): 5.6% | Nausea, TEAEs, All Grades, % of patients (All Cohorts (N = 89)): 29.2% | Nausea, TEAEs, Grade 3/4, % of patients (All Cohorts (N = 89)): 0.0% | Nausea, TRAEs, All Grades, % of patients (All Cohorts (N = 89)): 15.7% | Nausea, TRAEs, Grade 3/4, % of patients (All Cohorts (N = 89)): 0.0% | Stomatitis, TEAEs, All Grades, % of patients (All Cohorts (N = 89)): 30.3% | Stomatitis, TEAEs, Grade 3/4, % of patients (All Cohorts (N = 89)): 3.4% | Stomatitis, TRAEs, All Grades, % of patients (All Cohorts (N = 89)): 27.0% | Stomatitis, TRAEs, Grade 3/4, % of patients (All Cohorts (N = 89)): 3.4% | Median OS (Cohort A (FGFR2 translocations)): 15.8 months | median PFS; Median time to events (95% Cl), months (Cohort A (FGFR2 translocations), 47 evaluable patients, independent reviewer): 9.2 months and 9.20 (6.44-NE) months | objective response rate (ORR) (Cohort A (FGFR2 translocations), 47 patients followed >=8 months, 13.5 mg QD 2-weeks-on/1-week-off, independent reviewer, preliminary): 40.4% | Disease control rate (DCR) [1]: 85.1% | median duration of response (DOR) [1]: has not been reached | probability of maintaining response for greater than or equal to six months [1]: 86.2% | Best OR: CR, % of patients [2]: (0.0) % | Best OR: NE, % of patients [2]: (4.3) % | Best OR: PD, % of patients [2]: (10.6) % | Best OR: PR, % of patients [2]: (40.4) % | Best OR: SD, % of patients [2]: (44.7) % | DCR [2]: 85.1% | ORR [2]: 40.4% | PFS Events, % (Cohort A, 47 evaluable patients): 46.8% | Best OR: CR, % of patients [3]: (0.0) % | Best OR: NE, % of patients [3]: (22.7) % | Best OR: PD, % of patients [3]: (31.8) % | Best OR: PR, % of patients [3]: (0.0) % | Best OR: SD, % of patients [3]: (45.5) % | DCR [3]: 45.5% | ORR [3]: 0% | Median OS (Cohort B (other FGF/FGFR alterations)): 6.8 months | median PFS; Median time to events (95% Cl), months (Cohort B (other FGF/FGFR alterations), 22 evaluable patients, independent reviewer): 2.1 months and 2.10 (1.18-6.80) months | Disease control rate (DCR) (Cohort B (other FGF/FGFR alterations), preliminary): 45.5% | PFS Events, % (Cohort B, 22 evaluable patients): 77.3% | Best OR: CR, % of patients [4]: (0.0) % | Best OR: NE, % of patients [4]: (22.2) % | Best OR: PD, % of patients [4]: (55.6) % | Best OR: PR, % of patients [4]: (0.0) % | Best OR: SD, % of patients [4]: (22.2) % | DCR [4]: 22.2% | ORR [4]: 0% | Median OS (Cohort C (negative for FGF/FGFR alterations)): 4.0 months | median PFS; Median time to events (95% Cl), months (Cohort C (negative for FGF/FGFR alterations), 18 evaluable patients, independent reviewer): 1.7 months and 1.68 (1.38-1.84) months | Disease control rate (DCR) (Cohort C (negative for FGF/FGFR alterations), preliminary): 22.2% | PFS Events, % (Cohort C, 18 evaluable patients): 88.9% | patients with TEAEs with a fatal outcome (all cohorts, none related to study treatment): Five | Grade 3 or greater TEAE abdominal pain [5]: 6.7% | Grade 3 or greater TEAE arthralgia [5]: 6.7% | Grade 3 or greater TEAE hyponatremia [5]: 7.9% | Grade 3 or greater TEAE hypophosphatemia [5]: 13.5% | TEAE alopecia [5]: 41.6% | TEAE decreased appetite [5]: 37.1% | TEAE diarrhea [5]: 39.3% | TEAE dysgeusia [5]: 36.0% | TEAE fatigue [5]: 36.0% | TEAE hyperphosphatemia [5]: 60.7% | tolerability (in words) (interim analysis, patients with at least 8 months follow up): generally well tolerated
